# Values joined by “and” are separate entries in the source; they are usually repeats but may differ in a detail not shown here. Equal entries are not always repeated.
# Experiments:
# [1] = Critical micelle concentration by pyrene fluorescence method; type: physicochemical; details: in water
# Experimental: Critical Micelle Concentration (CMC) values of the synthetic compounds were determined by pyrene fluorescence method[28] using a Varian Cary Eclipse Fluorescence spectrometer (Agilent Technology, California, USA). The respective solutions were prepared using water previously saturated with pyrene (1 µM final concentration) in different concentrations (0.000001, 0.00001, 0.0001, 0.001, 0.01, 0.1, 1, 2.5, 5, 10, 15, 20 mM). Emission spectra of pyrene were obtained by exciting the samples at 334 nm. The fluorescence intensity ratio of I1/I3 (I1 = 373 nm, I3 = 383 nm) was plotted against sample solution concentration. The concentration at which the first break occurs was referred as the CMC value of the compound in water. Measurements were determined in triplicate.
# [2] = Creaming stability (creaming index) of 30% fish oil-in-water emulsions; type: physicochemical; details: 30% fish oil-in-water emulsion, storage at 5 °C, 7 days
# Experimental: (§1) The synthetic compounds were evaluated as emulsifiers for fish oil-in-water emulsions and compared to commercial DATEM. Emulsions consisting of 30.0% fish oil were prepared using 1.5 mL (0.1 M) of emulsifier solutions in phosphate buffer (pH 7.0). Coarse emulsions were first created by homogenization of lipid and aqueous phases (PRO250, PRO Scientific, Oxford, USA) at high speed for two minutes at room temperature. Further reduction particle size was achieved by use of a probe sonicator (Branson sonifier 250, Branson ultrasonics, Danbury, US) for a period of 3 min.
# To examine their creaming stability, duplicate emulsions were transferred to clear, screw-capped 15 mL vials (diameter 1.8 cm) and stored at 5 °C. By aid of daily digital photographs, the phase separation in each emulsion was monitored over 7 days. The extent of creaming was characterized by the creaming index (CI) according to Equation (2), where HA is the height of the lower, aqueous phase, and HE is the total height of emulsion[30]).1 %CI=HA/HE×100
# [3] = Temp-ramp FT-IR determination of lateral lipid chain packing; type: physicochemical; details: FT-IR CH2 rocking region, 28 °C
# Experimental: Fourier transform infrared spectroscopy (FT-IR) was applied to determine the molecular organization of the amphiphilic lipids. Spectra were recorded using an ATR-FTIR (PIKE, Madison, WI; Bruker, Ettlingen, Germany). The synthesized compounds were dried under low pressure over night, and then pressed onto a ZnSe ATR crystal mounted in a trough plate. […] Spectra were collected with a spectral resolution of 4 cm^−1 with 8 scans over the range of 3500–650 cm^−1. The FTIR spectra were analyzed by using MicroCal Origin 9.0 software.
# [4] = Lipid oxidation in fish oil-in-water emulsions (TBARS assay); details: relative to emulsions with commercial DATEM, after 7 days (1 week) of storage
# Experimental: as §1
# The ability of the new emulsifiers to inhibit lipid oxidation in emulsions was evaluated using Thiobarbituric acid-reactive species (TBARS) assay. TBARS were used to measure the formation of malondialdehyde, a major product of lipid oxidation, in emulsions after one week of storage. A solution of TCA-TBA-HCl was prepared by mixing 15 g of TCA, 375 mg TBA, 1.76 ml 12 N HCl, and 82.9 ml water. […] of this solution was mixed with 20 µl of the emulsion sample previously in 1 ml of distilled water. Thereafter, the mixture was heated at 100 °C for 15 min, cooled to room temperature within 10 min under a running tap water, and centrifuged at 2000×g for 15 min[22]. TBA formed colored complexes with the secondary oxidation products, which were detected in a UV-visible spectrophotometer (Cary 50Bio, Varian, Australia) at 532 nm. The relative degree of oxidation in each emulsion was calculated with respect to the degree of oxidation in emulsions with commercial DATEM, according to Equation (3), where AS is the absorbance of samples with added stabilizer, and A0 is the absorbance of samples with no added emulsifier. Measurements were taken on duplicate emulsion samples.2 Oxidation(%)=AS/AO×100
# [5] = Langmuir isotherm of monolayer; type: physicochemical; details: aqueous subphase, neutral pH
# Experimental: (§2) Langmuir-Blodgett studies was carried out for compound C14, being the ultimate compound with both surface active and antioxidant properties, according to the method of Correa et al.[29] with slight modications. Experiments were performed in aqueous solutions at neutral pH. Briefly, 20 µl of 2 mg/mL solution of C14 in chloroform:methanol (9:1, v/v) was applied to the aqueous phase and allowed to evaporate for a period of 20 min. Thereafter, the barriers were compressed at a constant rate of ~9 Å/ (chain min) until film collapsed. After stable conditions were attained, deposition of the corresponding film was carried out onto a hydrophilic mica support at a pressure just before film collapsed. The deposited monolayers on mica were left to air dry overnight. AFM images were acquired at ambient conditions by air tapping mode using a silicon tip on a micro cantilever (Olympus Inc., Japan) with a spring constant of 26 N/m and resonant frequency of 300 kHz. All measurements were performed in the center of the sample. Analyses were done in duplicates.
# [6] = Atomic force microscopy of Langmuir-Blodgett films on mica; type: physicochemical; details: film transferred to mica at ~22 mN/m
# Experimental: as §2
Critical micelle concentration (CMC) [1],Creaming index (CI) [2],Lipid packing mode [3],Surface pressure at monolayer collapse [5],Double-layer film thickness [6],Monolayer film thickness [6],melting point,Compound,Relative oxidation in emulsions (as TBARS) [4]
10 mM,15.1%,Hexagonal,–,–,–,–,CCCCCCCC(=O)OCC(O)COC(=O)C(CC(=O)O)OC(=O)/C=C/c1ccc(OC)c(OC)c1 (stereo not shown) [C8],–
5 mM,10.35%,Hexagonal,–,–,–,–,CCCCCCCCCC(=O)OCC(O)COC(=O)C(CC(=O)O)OC(=O)/C=C/c1ccc(OC)c(OC)c1 (stereo not shown) [C10],–
–,0%,Hexagonal,–,–,–,–,CCCCCCCCCCCCCC(=O)OCC(O)COC(=O)C(CC(=O)O)OC(=O)/C=C/c1ccc(O)c(O)c1 (stereo not shown) [C14a],19.26 ± 0.05%
–,0%,Hexagonal,–,–,–,–,CCCCCCCCCCCCCCCC(=O)OCC(O)COC(=O)C(CC(=O)O)OC(=O)/C=C/c1ccc(OC)c(OC)c1 (stereo not shown) [C16],–
–,0%,Hexagonal,–,–,–,–,CCCCCCCCCCCCCCCC(=O)OCC(O)COC(=O)C(CC(=O)O)OC(=O)/C=C/c1ccc(O)c(O)c1 (stereo not shown) [C16a],39.04 ± 0.02%

# The remaining lines, values behind:
Compound,Critical micelle concentration (CMC) [1],Creaming index (CI) [2],Lipid packing mode [3],Surface pressure at monolayer collapse [5],Double-layer film thickness [6],Monolayer film thickness [6],melting point,Relative oxidation in emulsions (as TBARS) [4]
CCCCCCCCCCCC(=O)OCC(O)COC(=O)C(CC(=O)O)OC(=O)/C=C/c1ccc(OC)c(OC)c1 (stereo not shown) [C12],–,0%,Hexagonal,–,–,–,–,–
CCCCCCCCCCCC(=O)OCC(O)COC(=O)C(CC(=O)O)OC(=O)/C=C/c1ccc(O)c(O)c1 (stereo not shown) [C12a],–,0%,Hexagonal,–,–,–,–,25.72 ± 0.03%
CCCCCCCCCCCCCC(=O)OCC(O)COC(=O)C(CC(=O)O)OC(=O)/C=C/c1ccc(OC)c(OC)c1 (stereo not shown) [C14],–,0%,Hexagonal,39 mN/m,5.2 nm and 6.7 nm,2.3 nm,–,–
CCCCCCCCCCCCCCCCCC(=O)OCC(O)COC(=O)C(CC(=O)O)OC(=O)/C=C/c1ccc(OC)c(OC)c1 (stereo not shown) [C18],0.01 mM,37.2%,Orthorhombic,–,–,–,38 °C,–

# From PMC5770433, “A new group of synthetic phenolic-containing amphiphilic molecules for multipurpose applications: Physico-chemical characterization and cell-toxicity study” (Scientific Reports, 2018)
